Our source for the EC50 values is patent US20240382471A1, “GLUCAGON-LIKE PEPTIDE-1 RECEPTOR MODULATORS AND USES THEREOF” (HEPAGENE THERAPEUTICS (HK) LIMITED, priority 2021, published 2024).

GLP1R, sequence (P43220 24-463, species assumed): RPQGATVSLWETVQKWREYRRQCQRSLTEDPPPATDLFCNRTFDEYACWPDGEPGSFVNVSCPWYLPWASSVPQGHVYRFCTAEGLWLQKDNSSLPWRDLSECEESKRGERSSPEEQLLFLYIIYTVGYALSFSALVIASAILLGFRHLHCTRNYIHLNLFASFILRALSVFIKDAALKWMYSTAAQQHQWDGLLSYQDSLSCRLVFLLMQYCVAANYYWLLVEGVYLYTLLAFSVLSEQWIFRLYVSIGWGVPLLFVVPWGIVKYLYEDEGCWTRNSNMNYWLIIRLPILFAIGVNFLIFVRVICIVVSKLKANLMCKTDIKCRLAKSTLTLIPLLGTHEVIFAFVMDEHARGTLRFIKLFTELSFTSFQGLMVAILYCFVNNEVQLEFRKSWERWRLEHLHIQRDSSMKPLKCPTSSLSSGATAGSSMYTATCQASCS

This experiment addresses GLP1R (Homo sapiens, UniProt P43220). The experiment in a line: GLP1R cAMP assay (HTRF cAMP detection, agonist activity). The experiment is classed as cell-based. Also noted: host or cells: Flp-In-293. To be noted: Flp-In-293-GLP1R cells, 30 min at 37° C., read-out: EC50 (nM) Assay 1. As for the experimental part: GLP1R-mediated agonist activity was determined with a cell-based functional assay utilizing an HTRF (Homogeneous Time-Resolved Fluorescene) cAMP detection kit that measures CAMP levels in the cell. Reagents and equipment used in the assay are listed below, followed by the protocol.
• 1) Cell Line: Flp-In-293-GLP1R (constructed by Pharmaron Beijing Co., Ltd) • 2) Complete Medium: DMEM+10% FBS+1×Penicillin-Streptomycin+200 μg/mL HB • 3) Assay Buffer: 1×HBSS+20 mM HEPES+0.1% BSA+500 μM IBMX
• a) Seed Flpin-293-GLP1R cells at 20,000 cells/well into 384 well assay plate (6007680-50, PE) using complete medium. • b) Prepare 4×compound working solution with assay buffer. • c) Add 5 μL 4×compound working solution into cell plate, incubate 30 min at 37° C. • d) Dilute Eu-cAMP tracer (1/50) with lysis buffer and add 10 μl/well to assay plate. • e) Dilute Ulight-anti-cAMP (1/150) with lysis buffer and add 10 μl/well to assay plate. • f) Incubate 1 h at RT. • g) Read the plate at wavelengths of 665 nm and 615 nm on Envision 2105 plate reader.
• 3.1% Activity is calculated as follow:
% Activity=100−(Signalcmpd−SignalAve_PC)/(SignalAve_VC−SignalAve_PC)×100. • 3.2 Calculate EC50 and Plot effect-dose curve of cmpds:
Y=Bottom+(Top−Bottom)/(1+10^((Log EC50−X)*Hill Slope)) • X: log of agonist concentration; Y: % Activity.
A general note: Changes in cAMP serve as a functional read-out for many G protein-coupled receptors.
The EC50 is the concentration that produces a half-maximal response. Turning to `N#Cc1ccc(COc2ncccc2N2CC3CCC(C2)N3Cc2nc3ccc(C(=O)O)cc3n2C[C@@H]2CCO2)c(F)c1` [Compound 2-16, 2-[(3-{2-[(4-cyano-2-fluorophenyl)methoxy]pyridin-3-yl}-3,8-diazabicyclo[3.2.1]octan-8-yl)methyl]-3-[(2S)-oxetan-2-ylmethyl]-1,3-benzodiazole-5-carboxylic acid], the EC50 was over 4 nM.
The same measure for `O=C(O)c1ccc2nc(CN3C4CCC3CN(c3cccnc3OCc3ccc(Cl)cc3F)C4)n(C[C@@H]3CCO3)c2c1` [Compound 2-17, 2-[(3-{2-[(4-chloro-2-fluorophenyl)methoxy]pyridin-3-yl}-3,8-diazabicyclo[3.2.1]octan-8-yl)methyl]-3-[(2S)-oxetan-2-ylmethyl]-1,3-benzodiazole-5-carboxylic acid]: over 4 nM; for `N#Cc1ccc(COc2cccc(N3CC4CCC(C3)N4Cc3nc4ccc(C(=O)O)cc4n3C[C@@H]3CCO3)c2)c(F)c1` [Compound 2-18, 2-((−3-(3-((4-cyano-2-fluorobenzyl)oxy)phenyl)-3,8-diazabicyclo[3.2.1]octan-8-yl)methyl)-1-(((S)-oxetan-2-yl)methyl)-1H-benzo[d]imidazole-6-carboxylic acid]: 1.17 nM.
The same measure for `N#Cc1ccc(COc2cccc(N3CC4CN(Cc5nc6ccc(C(=O)O)cc6n5C[C@@H]5CCO5)CC4C3)n2)c(F)c1` (stereo partly drawn) [Compound 2-20, 2-[(5-{6-[(4-cyano-2-fluorophenyl)methoxy]pyridin-2-yl}-hexahydropyrrolo[3,4-c]pyrrol-2-yl)methyl]-3-[(2S)-oxetan-2-ylmethyl]-1,3-benzodiazole-5-carboxylic acid]: 1.84 nM.
Take `N#Cc1ccc(COc2cccc(N3CC4CN(Cc5nc6ccc(C(=O)O)cc6n5CC5CCO5)CC4C3)n2)c(F)c1` (stereo not drawn) [Compound 2-21, 2-[(5-{6-[(4-cyano-2-fluorophenyl)methoxy]pyridin-2-yl}-hexahydropyrrolo[3,4-c]pyrrol-2-yl)methyl]-3-(oxetan-2-ylmethyl)-1,3-benzodiazole-5-carboxylic acid]: the EC50 was over 4 nM.
For `N#Cc1ccc(COc2cccc(N3CC4CN(Cc5nc6ccc(C(=O)O)cc6n5C[C@@H]5CCO5)CC4C3)n2)cc1` (stereo partly drawn) [Compound 2-22, 2-((5-(6-((4-cyanobenzyl)oxy)pyridin-2-yl)hexahydropyrrolo[3,4-c]pyrrol-2 (1H)-yl)methyl)-1-(((S)-oxetan-2-yl)methyl)-1H-benzo[d]imidazole-6-carboxylic acid], the EC50 worked out at 2 nM.
The same measure for `N#Cc1ccc(COc2cccc(N3CC4CN(Cc5nc6ccc(C(=O)O)cc6n5C[C@@H]5CCCO5)CC4C3)n2)c(F)c1` (stereo partly drawn) [Compound 2-23, 2-[(5-{6-[(4-cyano-2-fluorophenyl)methoxy]pyridin-2-yl}-hexahydropyrrolo[3,4-c]pyrrol-2-yl)methyl]-3-[(2S)-oxolan-2-ylmethyl]-1,3-benzodiazole-5-carboxylic acid]: over 4 nM; for `N#Cc1ccc(COc2cccc(N3CC4CN(Cc5nc6ccc(C(=O)O)cc6n5CC5CCOC5)CC4C3)n2)c(F)c1` (stereo not drawn) [Compound 2-24, 2-[(5-{6-[(4-cyano-2-fluorophenyl)methoxy]pyridin-2-yl}-hexahydropyrrolo[3,4-c]pyrrol-2-yl)methyl]-3-(oxolan-3-ylmethyl)-1,3-benzodiazole-5-carboxylic acid]: 3.05 nM.
Then `N#Cc1ccc(COc2cccc(N3CC4CN(Cc5nc6ccc(C(=O)O)cc6n5Cc5cocn5)CC4C3)n2)c(F)c1` (stereo not drawn) [Compound 2-25, 2-[(5-{6-[(4-cyano-2-fluorophenyl)methoxy]pyridin-2-yl}-hexahydropyrrolo[3,4-c]pyrrol-2-yl)methyl]-3-(1,3-oxazol-4-ylmethyl)-1,3-benzodiazole-5-carboxylic acid], with 1.7 nM; and `N#Cc1ccc(COc2cccc(N3CC4CN(Cc5nc6ccc(C(=O)O)cc6n5Cc5ncco5)CC4C3)n2)c(F)c1` (stereo not drawn) [Compound 2-26, 2-[(5-{6-[(4-cyano-2-fluorophenyl)methoxy]pyridin-2-yl}-hexahydropyrrolo[3,4-c]pyrrol-2-yl)methyl]-3-(1,3-oxazol-2-ylmethyl)-1,3-benzodiazole-5-carboxylic acid], with over 4 nM.
Then `O=C(O)c1ccc2nc(CN3CC4CN(c5cccc(OCc6ccc(Cl)cc6F)n5)CC4C3)n(C[C@@H]3CCO3)c2c1` (stereo partly drawn) [Compound 2-27, 2-((5-(6-((4-chloro-2-fluorobenzyl)oxy)pyridin-2-yl)hexahydropyrrolo[3,4-c]pyrrol-2 (1H)-yl)methyl)-1-(((S)-oxetan-2-yl)methyl)-1H-benzo[d]imidazole-6-carboxylic acid], with over 4 nM; and `O=C(O)c1ccc2nc(CN3CC4CN(c5cccc(OCc6ccc(F)cc6F)n5)CC4C3)n(C[C@@H]3CCO3)c2c1` (stereo partly drawn) [Compound 2-28, 2-[(5-{6-[(2,4-difluorophenyl)methoxy]pyridin-2-yl}-hexahydropyrrolo[3,4-c]pyrrol-2-yl)methyl]-3-[(2S)-oxetan-2-ylmethyl]-1,3-benzodiazole-5-carboxylic acid], with over 4 nM; and `N#Cc1ccc(COc2cccc(N3C4CCC3CN(Cc3nc5ccc(C(=O)O)cc5n3Cc3ncco3)C4)n2)c(F)c1` [Compound 2-31, 2-[(8-{6-[(4-cyano-2-fluorophenyl)methoxy]pyridin-2-yl}-3,8-diazabicyclo[3.2.1]octan-3-yl)methyl]-3-(1,3-oxazol-2-ylmethyl)-1,3-benzodiazole-5-carboxylic acid], with 1.5 nM.
Regarding `N#Cc1ccc(COc2cccc(N3C4CCC3CN(Cc3nc5ccc(C(=O)O)cc5n3C[C@@H]3CCCO3)C4)n2)c(F)c1` [Compound 2-32, 2-((−8-(6-((4-cyano-2-fluorobenzyl)oxy)pyridin-2-yl)-3,8-diazabicyclo[3.2.1]octan-3-yl)methyl)-1-(((S)-tetrahydrofuran-2-yl)methyl)-1H-benzo[d]imidazole-6-carboxylic acid], the EC50 was 3.25 nM.
The same measure for `N#Cc1ccc(COc2cccc(N3C4CCC3CN(Cc3nc5ccc(C(=O)O)cc5n3CC3CCOC3)C4)n2)c(F)c1` (stereo not drawn) [Compound 2-33, 2-[(8-{6-[(4-cyano-2-fluorophenyl)methoxy]pyridin-2-yl}-3,8-diazabicyclo[3.2.1]octan-3-yl)methyl]-3-(oxolan-3-ylmethyl)-1,3-benzodiazole-5-carboxylic acid]: over 4 nM.
Then `O=C(O)c1ccc2nc(CN3CC4CCC(C3)N4c3cccc(OCc4ccccc4F)n3)n(C[C@@H]3CCO3)c2c1` [Compound 2-36, 2-((−8-(6-((2-fluorobenzyl)oxy)pyridin-2-yl)-3,8-diazabicyclo[3.2.1]octan-3-yl)methyl)-1-(((S)-oxetan-2-yl)methyl)-1H-benzo[d]imidazole-6-carboxylic acid], with over 4 nM; and `Cc1ccc(COc2cccc(N3C4CCC3CN(Cc3nc5ccc(C(=O)O)cc5n3C[C@@H]3CCO3)C4)n2)c(F)c1` [Compound 2-37, 2-((−8-(6-((2-fluoro-4-methylbenzyl)oxy)pyridin-2-yl)-3,8-diazabicyclo[3.2.1]octan-3-yl)methyl)-1-(((S)-oxetan-2-yl)methyl)-1H-benzo[d]imidazole-6-carboxylic acid], with 0.929 nM.
As to `N#Cc1ccc(COc2cccc(N3C4CCC3CN(Cc3nc5ccc(C(=O)O)cc5n3C[C@@H]3CCO3)C4)n2)cc1` [Compound 2-38, 2-((8-(6-((4-cyanobenzyl)oxy)pyridin-2-yl)-3,8-diazabicyclo[3.2.1]octan-3-yl)methyl)-1-(((S)-oxetan-2-yl)methyl)-1H-benzo[d]imidazole-6-carboxylic acid], the EC50 came to 0.458 nM.
Then `O=C(O)c1ccc2nc(CN3CC4CCC(C3)N4c3cccc(OCc4ccc(Cl)cc4F)n3)n(C[C@@H]3CCO3)c2c1` [Compound 2-39, 2-[(8-{6-[(4-chloro-2-fluorophenyl)methoxy]pyridin-2-yl}-3,8-diazabicyclo[3.2.1]octan-3-yl)methyl]-3-[(2S)-oxetan-2-ylmethyl]-1,3-benzodiazole-5-carboxylic acid], with 0.346 nM; and `O=C(O)c1ccc2nc(CN3CC4CCC(C3)N4c3cccc(OCc4ccncc4F)n3)n(C[C@@H]3CCO3)c2c1` [Compound 2-40, 2-((−8-(6-((3-fluoropyridin-4-yl)methoxy)pyridin-2-yl)-3,8-diazabicyclo[3.2.1]octan-3-yl)methyl)-1-(((S)-oxetan-2-yl)methyl)-1H-benzo[d]imidazole-6-carboxylic acid], with over 4 nM.
The same measure for `O=C(O)c1ccc2nc(CN3CC4CCC(C3)N4c3cccc(OCc4ccncc4)n3)n(C[C@@H]3CCO3)c2c1` [Compound 2-41, 3-[(2S)-oxetan-2-ylmethyl]-2-({8-[6-(pyridin-4-ylmethoxy)pyridin-2-yl]-3,8-diazabicyclo[3.2.1]octan-3-yl}methyl)-1,3-benzodiazole-5-carboxylic acid]: over 4 nM.
